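Test compounds were applied to cells in 96-well plates for 48 hours at 5 doses. GI50 marks 50% less growth. The concentration for full growth arrest is given as TGI.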
How the values were obtained:
Assay in all cases: NCI-60 cell line screen, 48 h
[1] = system: SK-MEL-5 melanoma
[2] = system: IGROV1 ovarian
[3] = system: HCC-2998 colon
[4] = system: MOLT-4 leukemia
[5] = system: K-562 leukemia
[6] = system: MDA-MB-435
[7] = system: OVCAR-4 ovarian
[8] = system: LOX IMVI melanoma
[9] = system: COLO 205 colon
[10] = system: BT-549 breast
[11] = system: 786-0 renal
[12] = system: HOP-62 NSCLC
[13] = system: SK-MEL-2 melanoma
[14] = system: OVCAR-5 ovarian
[15] = system: DU-145 prostate
[16] = system: SK-OV-3 ovarian
[17] = system: UACC-257 melanoma
[18] = system: HS 578T breast
[19] = system: OVCAR-8 ovarian
[20] = system: A498 renal
[21] = system: NCI-H226 lung
[22] = system: MALME-3M melanoma
[23] = system: A549 NSCLC
[24] = system: NCI-H522 lung
[25] = system: HCT-116 colon
[26] = system: M14 melanoma
[27] = system: MDA-MB-231 breast
[28] = system: RXF 393 renal
[29] = system: UO-31 renal
[30] = system: HOP-92 NSCLC
[31] = system: NCI-H23 lung
[32] = system: OVCAR-3 ovarian
[33] = system: NCI/ADR-RES ovarian
[34] = system: CCRF-CEM leukemia
[35] = system: T-47D breast
[36] = system: SF-268 CNS
[37] = system: HT29 colon
[38] = system: ACHN renal
[39] = system: SF-539 CNS
[40] = system: RPMI-8226 leukemia
[41] = system: SN12C renal
[42] = system: SK-MEL-28 melanoma
[43] = system: HL-60(TB) leukemia
[44] = system: HCT-15 colon
[45] = system: SNB-19 CNS
[46] = system: KM12 colon
[47] = system: CAKI-1 renal
[48] = system: U251 CNS
[49] = system: SF-295 CNS
[50] = system: MDA-MB-468 breast
[51] = system: UACC-62 melanoma
[52] = system: SNB-75 CNS
[53] = system: MCF7 breast
[54] = system: SR leukemia
[55] = system: PC-3 prostate
[56] = system: NCI-H460 lung
[57] = system: TK-10 renal
[58] = system: SW-620 colon
[59] = system: EKVX NSCLC

In the case of `O=C(CNc1nc(-c2ccccc2)cs1)Nc1ccc([N+](=O)[O-])cc1Cl`, the GI50 [1] is reported as 3.66 µM, the TGI [1] is reported as 14 µM and the GI50 [2] is reported as 4.29 µM. It also gave a TGI [2] of 15.5 µM, a GI50 [3] of 6.94 µM and a TGI [3] of 19.7 µM. It also gave a GI50 [4] of 3.17 µM, a TGI [4] of 11.6 µM and a GI50 [5] of 3.42 µM. It also gave a TGI [5] of 13.9 µM, a GI50 [6] of 4.88 µM and a TGI [6] of 16.9 µM. It also gave a GI50 [7] of 6.55 µM, a TGI [7] of 19.5 µM and a GI50 [8] of 2.96 µM. For the same compound, the TGI [8] was 11.7 µM, the GI50 [9] was 11.5 µM and the TGI [9] was 23.7 µM. The GI50 [10] was 2.29 µM, the TGI [10] was 7.66 µM and the GI50 [11] was 3.3 µM. For the same compound, the TGI [11] was 13.2 µM, the GI50 [12] was 7.02 µM and the TGI [12] was 20 µM. For the same compound, the GI50 [13] was 8.86 µM, the TGI [13] was 21 µM and the GI50 [14] was 6.18 µM. For the same compound, the TGI [14] was 20.2 µM, the GI50 [15] was 10.6 µM and the TGI [15] was 22.5 µM. The GI50 [16] was 6.18 µM, the TGI [16] was 19.2 µM and the GI50 [17] was 7.55 µM. The TGI [17] was 20.2 µM, the GI50 [18] was 3.74 µM and the TGI [18] was 15.1 µM. For the same compound, the GI50 [19] was 5.69 µM, the TGI [19] was 18.3 µM and the GI50 [20] was 7.11 µM. For the same compound, the TGI [20] was 20.1 µM, the GI50 [21] was 6.78 µM and the TGI [21] was 19.3 µM. For the same compound, the GI50 [22] was 9 µM, the TGI [22] was 21 µM and the GI50 [23] was 6.05 µM. The TGI [23] was 19 µM, the GI50 [24] was 2.9 µM and the TGI [24] was 12 µM. For the same compound, the GI50 [25] was 3.36 µM, the TGI [25] was 12.6 µM and the GI50 [26] was 3.6 µM. The TGI [26] was 13.5 µM, the GI50 [27] was 4.94 µM and the TGI [27] was 17.1 µM. The GI50 [28] was 4.38 µM, the TGI [28] was 15 µM and the GI50 [29] was 3.37 µM. It also gave a TGI [29] of 15.5 µM, a GI50 [30] of 4.28 µM and a TGI [30] of 16.7 µM. For the same compound, the GI50 [31] was 4.6 µM, the TGI [31] was 17 µM and the GI50 [32] was 3.62 µM. It also gave a TGI [32] of 14.1 µM, a GI50 [33] of 4.11 µM and a TGI [33] of 14.6 µM. The GI50 [34] was 3.05 µM, the TGI [34] was 12.2 µM and the GI50 [35] was 3.37 µM. The TGI [35] was 13.5 µM, the GI50 [36] was 3.98 µM and the TGI [36] was 16.2 µM. It also gave a GI50 [37] of 7.63 µM, a TGI [37] of 20.4 µM and a GI50 [38] of 5.51 µM. The TGI [38] was 18.2 µM, the GI50 [39] was 5.36 µM and the TGI [39] was 17.6 µM. The GI50 [40] was 2.99 µM, the TGI [40] was 13.2 µM and the GI50 [41] was 3.72 µM. The TGI [41] was 13.9 µM, the GI50 [42] was 12.1 µM and the TGI [42] was 24.5 µM. It also gave a GI50 [43] of 2.8 µM, a TGI [43] of 11 µM and a GI50 [44] of 3.34 µM. It also gave a TGI [44] of 12.8 µM, a GI50 [45] of 7.71 µM and a TGI [45] of 20.3 µM. The GI50 [46] was 4.17 µM, the TGI [46] was 14.9 µM and the GI50 [47] was 3.34 µM. For the same compound, the TGI [47] was 14.5 µM, the GI50 [48] was 4.42 µM and the TGI [48] was 16.8 µM. The GI50 [49] was 4.47 µM, the TGI [49] was 16.6 µM and the GI50 [50] was 1.96 µM. The TGI [50] was 4.88 µM, the GI50 [51] was 3.6 µM and the TGI [51] was 15.4 µM. It also gave a GI50 [52] of 1.73 µM, a TGI [52] of 9.94 µM and a GI50 [53] of 3.26 µM. It also gave a TGI [53] of 13.4 µM, a GI50 [54] of 4.67 µM and a TGI [54] of 17.4 µM. It also gave a GI50 [55] of 5.17 µM, a TGI [55] of 17.9 µM and a GI50 [56] of 9.34 µM. For the same compound, the TGI [56] was 21.2 µM, the GI50 [57] was 8.04 µM and the TGI [57] was 20.5 µM. The GI50 [58] was 4.47 µM, the TGI [58] was 16.2 µM and the GI50 [59] was 3.44 µM. For the same compound, the TGI [59] was 14.3 µM.
